# Reference: patent US20180044343A1, “BICYCLIC IMIDAZOLO DERIVATIVE” (Sumitomo Dainippon Pharma Co., Ltd., priority 2015, published 2018)
# Biological target: PDE1B (Homo sapiens, UniProt Q01064)
# Assay: In vitro HTRF PDE1 inhibition assay (PDE1B)
# Format: biochemical
# Conditions: in vitro PDE1B HTRF Assay; read-out: IC50
# Sequence of PDE1B (Q01064 whole entry): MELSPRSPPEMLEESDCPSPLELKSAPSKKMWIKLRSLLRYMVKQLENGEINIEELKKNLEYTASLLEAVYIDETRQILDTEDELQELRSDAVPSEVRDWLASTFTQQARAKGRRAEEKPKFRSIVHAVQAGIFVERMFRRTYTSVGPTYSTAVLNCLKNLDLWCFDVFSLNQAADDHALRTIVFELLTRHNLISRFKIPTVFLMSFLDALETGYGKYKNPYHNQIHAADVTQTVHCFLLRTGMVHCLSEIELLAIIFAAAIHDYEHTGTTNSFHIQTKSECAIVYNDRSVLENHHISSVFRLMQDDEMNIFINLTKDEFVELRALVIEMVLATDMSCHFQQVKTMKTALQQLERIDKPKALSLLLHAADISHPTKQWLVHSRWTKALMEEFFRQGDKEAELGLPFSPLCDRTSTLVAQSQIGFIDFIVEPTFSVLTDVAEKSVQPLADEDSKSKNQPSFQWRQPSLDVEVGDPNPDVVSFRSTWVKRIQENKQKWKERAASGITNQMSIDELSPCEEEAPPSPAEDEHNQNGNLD
row,IC50 [µM],Structure (SMILES)
1,< 1,COc1nn2c(C3CCOCC3)nc(C)c2c(=O)n1CC1CCC(F)(F)CC1 [Example 122]
2,< 1,"CCn1c(OCC2CCC(F)(F)CC2)nn2c(C3CCOCC3)ncc2c1=S [Example 123, 2-[(4,4-Difluorocyclohexyl)methoxy]-3-ethyl-7-(tetrahydro-2H-pyran-4-yl)imidazo[5,1-f][1,2,4]triazin-4(3H)-thione]"
3,< 1,"O=c1[nH]c(N2CCC[C@@H]2c2ccccc2)nn2c(C3CCOCC3)ncc12 [Example 124, 2-[(2R)-2-phenylpyrrolidin-1-yl]-7-(tetrahydro-2H-pyran-4-yl)imidazo[5,1-f][1,2,4]triazin-4(3H)-one]"
4,< 1,"CC(C)c1ncc2c(=O)[nH]c(N3CCC[C@@H]3c3ccc(Cl)cc3)nn12 [Example 125, 2-[(2R)-2-(4-chlorophenyl)pyrrolidin-1-yl]-7-(propan-2-yl)imidazo[5,1-f][1,2,4]triazin-4(3H)-one]"
5,< 1,O=c1[nH]c(N2CCC[C@H]2c2ccccc2)nn2c(C3CCOCC3)ncc12 [Example 126]
6,< 1,O=c1[nH]c(N2CCCC2c2ccccc2Cl)nn2c(C3CCOCC3)ncc12 (stereo not drawn) [Example 127]
7,< 1,O=c1[nH]c(N2CCCC2c2cccc(Cl)c2)nn2c(C3CCOCC3)ncc12 (stereo not drawn) [Example 128]
8,< 1,O=c1[nH]c(N2CCCC2c2ccc(Cl)cc2)nn2c(C3CCOCC3)ncc12 (stereo not drawn) [Example 129]
9,< 1,CC(C)c1ncc2c(=O)[nH]c(N3CCC[C@@H]3c3ccccc3)nn12 [Example 130]
10,1 to 10,CC(C)c1ncc2c(=O)[nH]c(N3CCC[C@H]3c3ccccc3)nn12 [Example 131]
11,< 1,CC(C)c1ncc2c(=O)[nH]c(N3CCCC3c3ccccc3Cl)nn12 (stereo not drawn) [Example 132]
12,< 1,CC(C)c1ncc2c(=O)[nH]c(N3CCCC3c3cccc(Cl)c3)nn12 (stereo not drawn) [Example 133]
13,< 1,CC(C)c1ncc2c(=O)[nH]c(N3CCCC3c3ccc(Cl)cc3)nn12 (stereo not drawn) [Example 134]
14,< 1,"COc1ccc(CNc2nn3c(C(C)C)ncc3c(=O)n2C)nc1 [Example 135, 2-{[(5-Methoxypyridin-2-yl)methyl]amino}-3-methyl-7-(propan-2-yl)imidazo[5,1-f][1,2,4]triazin-4(3H)-one]"
15,< 1,"Cc1ccc(CNc2nn3c(C4CCOCC4)ncc3c(=O)n2C)c(F)c1 [Example 136, 2-[(2-Fluoro-4-methylbenzyl)amino]-3-methyl-7-(tetrahydro-2H-pyran-4-yl)imidazo[5,1-f][1,2,4]triazin-4(3H)-one]"
16,< 1,"Cc1cccc(CNc2nn3c(C(C)C)ncc3c(=O)n2C)n1 [Example 137, 3-Methyl-2-{[(6-methylpyridin-2-yl)methyl]amino}-7-(propan-2-yl)imidazo[5,1-f][1,2,4]triazin-4(3H)-one]"
17,< 1,"CC(C)c1ncc2c(=O)n(C)c(NC3CCCc4ccccc43)nn12 (stereo not drawn) [Example 138, 3-Methyl-7-(propan-2-yl)-2-(1,2,3,4-tetrahydronaphthalen-1-ylamino)imidazo[5,1-f][1,2,4]triazin-4(3H)-one]"
18,< 1,CC(C)c1ncc2c(=O)n(C)c(NCc3ccccc3)nn12 [Example 139]
19,< 1,COc1ccc(CNc2nn3c(C(C)C)ncc3c(=O)n2C)cc1 [Example 140]
20,< 1,CC(C)c1ncc2c(=O)n(C)c(NCc3ccc(Cl)cc3)nn12 [Example 141]
21,< 1,CC(C)c1ncc2c(=O)n(C)c(NCc3ccc(C#N)cc3)nn12 [Example 142]
22,< 1,CC(C)c1ncc2c(=O)n(C)c(NC3CCc4ccccc43)nn12 (stereo not drawn) [Example 143]
23,< 1,CC(C)c1ncc2c(=O)n(C)c(N[C@@H]3CCCc4ccccc43)nn12 [Example 144]
24,< 1,CC(C)c1ncc2c(=O)n(C)c(N[C@H]3CCCc4ccccc43)nn12 [Example 145]
25,< 1,CC(C)c1ncc2c(=O)n(C)c(NCc3ccc(Cl)cc3F)nn12 [Example 146]
26,< 1,CC(C)c1ncc2c(=O)n(C)c(NC3CCCc4cc(Cl)ccc43)nn12 (stereo not drawn) [Example 147]
27,< 1,CC(C)c1ncc2c(=O)n(C)c(NC3CCCc4cc(C#N)ccc43)nn12 (stereo not drawn) [Example 148]
28,< 1,CC(C)c1ncc2c(=O)n(C)c(NCc3ccccn3)nn12 [Example 150]

row,IC50 [µM],Structure (SMILES)
1,< 1,CC(C)c1ncc2c(=O)n(C)c(NCCc3ccccn3)nn12 [Example 151]
2,< 1,CC(C)c1ncc2c(=O)n(C)c(NCc3cccnc3)nn12 [Example 152]
3,< 1,Cc1ccc(CNc2nn3c(C(C)C)ncc3c(=O)n2C)nc1 [Example 153]
4,1 to 10,CC(C)c1ncc2c(=O)n(C)c(NCc3ccc(F)cn3)nn12 [Example 154]
5,< 1,Cc1ccnc(CNc2nn3c(C(C)C)ncc3c(=O)n2C)c1 [Example 156]
6,< 1,Cc1cccnc1CNc1nn2c(C(C)C)ncc2c(=O)n1C [Example 157]
7,< 1,CC(C)c1ncc2c(=O)n(C)c(NCc3ccc(C#N)cn3)nn12 [Example 158]
8,< 1,CCc1ccc(CNc2nn3c(C(C)C)ncc3c(=O)n2C)nc1 [Example 159]
9,< 1,CC(C)c1ncc2c(=O)n(C)c(NCc3ncccc3F)nn12 [Example 160]
10,< 1,CC(C)c1ncc2c(=O)n(C)c(NC3(c4ccccn4)CC3)nn12 [Example 161]
11,1 to 10,CC(C)c1ncc2c(=O)n(C)c(NC(C)(C)c3ccccn3)nn12 [Example 162]
12,1 to 10,CC(C)c1ncc2c(=O)n(C)c(N(C)Cc3ccccn3)nn12 [Example 163]
13,< 1,CC(C)c1ncc2c(=O)n(C)c(N3CCC[C@@H]3c3ccc(Cl)cc3)nn12 [Example 164]
14,< 1,Cc1ccc([C@H]2CCCN2c2nn3c(C(C)C)ncc3c(=O)n2C)cc1 [Example 165]
15,< 1,CC(C)c1ccc([C@H]2CCCN2c2nn3c(C(C)C)ncc3c(=O)n2C)cc1 [Example 166]
16,1 to 10,CC(C)c1ncc2c(=O)n(C)c(N3CCC[C@@H]3c3ccc(C#N)cc3)nn12 [Example 167]
17,< 1,CCc1ccc([C@H]2CCCN2c2nn3c(C(C)C)ncc3c(=O)n2C)cc1 [Example 168]
18,< 1,CCn1c(NCc2ccccn2)nn2c(C(C)C)ncc2c1=O [Example 169]
19,< 1,CCn1c(NCc2ccc(C)cn2)nn2c(C(C)C)ncc2c1=O [Example 170]
20,< 1,CCn1c(NCc2ccc(F)cn2)nn2c(C(C)C)ncc2c1=O [Example 171]
21,< 1,CCn1c(NCc2ccc(OC)cn2)nn2c(C(C)C)ncc2c1=O [Example 172]
22,1 to 10,CCn1c(NCc2ncccc2C)nn2c(C(C)C)ncc2c1=O [Example 173]
23,< 1,CCn1c(NCc2ncccc2F)nn2c(C(C)C)ncc2c1=O [Example 174]
24,< 1,CCn1c(NCc2ccc(C#N)cn2)nn2c(C(C)C)ncc2c1=O [Example 175]
25,< 1,CCn1c(NCCc2ccccn2)nn2c(C(C)C)ncc2c1=O [Example 177]
26,< 1,CCn1c(N2CCC[C@@H]2c2ccc(Cl)cc2)nn2c(C(C)C)ncc2c1=O [Example 178]
27,< 1,CCCn1c(N2CCC[C@@H]2c2ccc(Cl)cc2)nn2c(C(C)C)ncc2c1=O [Example 179]

row,Structure (SMILES),IC50 [µM]
1,Cc1ccc(CNc2nn3c(C(C)C)ncc3c(=O)n2C)cn1 [Example 155],< 1
2,CCn1c(NCc2ccc(C)nc2)nn2c(C(C)C)ncc2c1=O [Example 176],< 1
